From patent US20260256792A1, “TREATMENT OF CHRONIC SPONTANEOUS URTICARIA BY ADMINISTERING (R)-2-[3-[4-AMINO-3-(2-FLUORO-4-PHENOXY-PHENYL)PYRAZOLO[3,4-D]PYRIMIDIN-1-YL]PIPERIDINE-1-CARBONYL]-4-METHYL-4-[4-(OXETAN-3-YL)PIPERAZIN-1-YL]PENT-2-ENENITRILE” (priority 2023, published 2026)

Test system: moderate-to-severe chronic spontaneous urticaria (CSU)
Test: Phase 2 CSU study: hives severity score over 7 days (HSS7)
Format: in vivo, human
Parameters: key to HSS7 Change from baseline, Median / HSS7, Median / HSS7, Max / HSS7 Change from baseline, Q1 / HSS7 Change from baseline, Q3 / HSS7 Change from baseline, Max: 7-day sum of daily hive scores, each 0 = none to 3 = >50 hives
Text: The study comprises a 12 week, randomized, double-blind, placebo-controlled, multi-center, dose-ranging efficacy and safety phase, followed by a 40 week open label extension (OLE) phase (see FIG. 1).
The study consists of three phases and an optional OLE phase.
The UAS is a validated PRO measure. The daily UAS is the sum of the daily Hive Severity Score (HSS, ranging from 0=None to 3=more than 50 hives) and the daily Itch Severity Score (ISS, ranging from 0=None to 3=intense), the 2 key urticaria signs and symptoms which are wheals and itch. The daily UAS scores range from 0 to 6 point/day. Daily UAS scores are summed over 7-day period to create the UAS7, ranging from 0 to 42, and are composed of the HSS7 and ISS7 components. […] Patients were to complete the UAS using the e-diary. The e-diary was to be used once daily on the same time of each day recording of participant's answers to the urticaria activity score over 7 days (UAS7) questionnaire. For participants who entered the OLE phase, their answers to the UAS7 questionnaire were also to be collected from Week 20 to Week24 and from Week 48 to Week 52.
The following secondary endpoints were to be analyzed using the same approach as for the primary endpoint: • Change from baseline in UAS7 at Week 4 • Change from baseline in UAS7 at Week 12 (for US and US reference countries) • Change from baseline in ISS7 at Week 12 (except US and US reference countries) • Change from baseline in HSS7 at Week 12

[1] = Week 10, 400 mg BID, Omalizumab-Naïve Population
[2] = Week 10, 400 mg BID, Patients with Prior Omalizumab Use
[3] = Week 10, 400 mg QPM, Omalizumab-Naïve Population
[4] = Week 10, 400 mg QPM, Patients with Prior Omalizumab Use
[5] = Week 10, 400 mg TID, Omalizumab-Naïve Population
[6] = Week 10, 400 mg TID, Patients with Prior Omalizumab Use
[7] = Week 11, 400 mg BID, Omalizumab-Naïve Population
[8] = Week 11, 400 mg BID, Patients with Prior Omalizumab Use
[9] = Week 11, 400 mg QPM, Omalizumab-Naïve Population
[10] = Week 11, 400 mg QPM, Patients with Prior Omalizumab Use
[11] = Week 11, 400 mg TID, Omalizumab-Naïve Population
[12] = Week 11, 400 mg TID, Patients with Prior Omalizumab Use
[13] = Week 12, 400 mg BID, Omalizumab-Naïve Population
[14] = Week 12, 400 mg BID, Patients with Prior Omalizumab Use
[15] = Week 12, 400 mg QPM, Omalizumab-Naïve Population
[16] = Week 12, 400 mg QPM, Patients with Prior Omalizumab Use
[17] = Week 12, 400 mg TID, Omalizumab-Naïve Population
[18] = Week 12, 400 mg TID, Patients with Prior Omalizumab Use

CC(C)(C=C(C#N)C(=O)N1CCC[C@@H](n2nc(-c3ccc(Oc4ccccc4)cc3F)c3c(N)ncnc32)C1)N1CCN(C2COC2)CC1 [rilzabrutinib, (R)-2-[3-[4-amino-3-(2-fluoro-4-phenoxy-phenyl)pyrazolo[3,4-d]pyrimidin-1-yl]piperidine-1-carbonyl]-4-methyl-4-[4-(oxetan-3-yl)piperazin-1-yl]pent-2-enenitrile]
HSS7, Median [1]: 6.50
HSS7 Change from baseline, Mean (SD) [1]: −6.95 (5.65)
HSS7 Change from baseline, Median [1]: −6.50
HSS7 Percent change from baseline, Mean (SD) [1]: −53.45 (42.56) %
HSS7 Percent change from baseline, Median [1]: −47.73%
HSS7, Mean (SD) [2]: 5.20 (7.19)
HSS7, Median [2]: 2.00
HSS7 Change from baseline, Mean (SD) [2]: −9.60 (9.13)
HSS7 Change from baseline, Median [2]: −12.00
HSS7 Percent change from baseline, Mean (SD) [2]: −58.10 (53.18) %
HSS7 Percent change from baseline, Median [2]: −90.48%
HSS7, Mean (SD) [3]: 9.88 (5.93)
HSS7, Median [3]: 8.00
HSS7 Change from baseline, Mean (SD) [3]: −5.27 (5.66)
HSS7 Change from baseline, Median [3]: −4.00
HSS7 Percent change from baseline, Mean (SD) [3]: −33.86 (34.68) %
HSS7 Percent change from baseline, Median [3]: −28.64%
HSS7, Mean (SD) [4]: 8.00 (NC)
HSS7, Median [4]: 8.00
HSS7 Change from baseline, Mean (SD) [4]: −12.00 (NC)
HSS7 Change from baseline, Median [4]: −12.00
HSS7 Percent change from baseline, Mean (SD) [4]: −60.00 (NC) %
HSS7 Percent change from baseline, Median [4]: −60.00%
HSS7, Mean (SD) [5]: 5.87 (5.06)
HSS7, Median [5]: 4.50
HSS7 Change from baseline, Mean (SD) [5]: −8.20 (5.62)
HSS7 Change from baseline, Median [5]: −9.00
HSS7 Percent change from baseline, Mean (SD) [5]: −57.32 (34.80) %
HSS7 Percent change from baseline, Median [5]: −63.10%
HSS7, Mean (SD) [6]: 3.00 (4.65)
HSS7, Median [6]: 1.00
HSS7 Change from baseline, Mean (SD) [6]: −13.03 (7.21)
HSS7 Change from baseline, Median [6]: −13.00
HSS7 Percent change from baseline, Mean (SD) [6]: −79.31 (25.96) %
HSS7 Percent change from baseline, Median [6]: −91.50%
HSS7, Mean (SD) [7]: 7.13 (7.07)
HSS7, Median [7]: 5.83
HSS7 Change from baseline, Mean (SD) [7]: −7.34 (6.14)
HSS7 Change from baseline, Median [7]: −7.00
HSS7 Percent change from baseline, Mean (SD) [7]: −52.82 (41.27) %
HSS7 Percent change from baseline, Median [7]: −54.55%
HSS7, Mean (SD) [8]: 4.80 (7.46)
HSS7, Median [8]: 0.00
HSS7 Change from baseline, Mean (SD) [8]: −10.00 (9.67)
HSS7 Change from baseline, Median [8]: −12.00
HSS7 Percent change from baseline, Median [8]: −100.00%
HSS7, Mean (SD) [9]: 10.18 (6.18)
HSS7, Median [9]: 9.33
HSS7 Change from baseline, Mean (SD) [9]: −5.18 (5.64)
HSS7 Change from baseline, Median [9]: 3.00
HSS7 Percent change from baseline, Mean (SD) [9]: −33.21 (36.21) %
HSS7 Percent change from baseline, Median [9]: −30.00%
HSS7, Mean (SD) [10]: 9.00 (NC)
HSS7, Median [10]: 9.00
HSS7 Change from baseline, Mean (SD) [10]: −11.00 (NC)
HSS7 Change from baseline, Median [10]: −11.00
HSS7 Percent change from baseline, Mean (SD) [10]: −55.00 (NC) %
HSS7 Percent change from baseline, Median [10]: −55.00%
HSS7, Mean (SD) [11]: 6.17 (5.40)
HSS7, Median [11]: 5.83
HSS7 Change from baseline, Mean (SD) [11]: −7.90 (6.07)
HSS7 Change from baseline, Median [11]: −8.00
HSS7 Percent change from baseline, Mean (SD) [11]: −55.30 (37.59) %
HSS7 Percent change from baseline, Median [11]: −61.11%
HSS7, Mean (SD) [12]: 2.67 (4.84)
HSS7, Median [12]: 0.00
HSS7 Change from baseline, Mean (SD) [12]: −13.36 (7.26)
HSS7 Change from baseline, Median [12]: −13.00
HSS7 Percent change from baseline, Mean (SD) [12]: −82.14 (27.76) %
HSS7 Percent change from baseline, Median [12]: −100.00%
HSS7, Mean (SD) [13]: 7.52 (7.21)
HSS7, Median [13]: 7.00
HSS7 Change from baseline, Mean (SD) [13]: −7.09 (6.54)
HSS7 Change from baseline, Median [13]: −4.50
HSS7 Percent change from baseline, Mean (SD) [13]: −49.56 (40.81) %
HSS7 Percent change from baseline, Median [13]: −37.50%
HSS7, Mean (SD) [14]: 4.25 (8.50)
HSS7, Median [14]: 0.00
HSS7 Change from baseline, Median [14]: −14.50
HSS7 Percent change from baseline, Mean (SD) [14]: −75.00 (50.00) %
HSS7 Percent change from baseline, Median [14]: −100.00%
HSS7, Median [15]: 8.58
HSS7 Change from baseline, Mean (SD) [15]: −4.85 (5.63)
HSS7 Change from baseline, Median [15]: −4.00
HSS7 Percent change from baseline, Mean (SD) [15]: −31.20 (34.88) %
HSS7 Percent change from baseline, Median [15]: −33.18%
HSS7, Mean (SD) [16]: 9.00 (NC)
HSS7, Median [16]: 9.00
HSS7 Change from baseline, Mean (SD) [16]: −11.00 (NC)
HSS7 Change from baseline, Median [16]: −11.00
HSS7 Percent change from baseline, Mean (SD) [16]: −55.00 (NC) %
HSS7 Percent change from baseline, Median [16]: −55.00%
HSS7, Mean (SD) [17]: 5.23 (4.86)
HSS7, Median [17]: 4.08
HSS7 Change from baseline, Mean (SD) [17]: −8.77 (5.84)
HSS7 Change from baseline, Median [17]: −8.00
HSS7 Percent change from baseline, Mean (SD) [17]: −60.93 (34.27) %
HSS7 Percent change from baseline, Median [17]: −64.29%
HSS7, Mean (SD) [18]: 3.20 (5.22)
HSS7, Median [18]: 0.00
HSS7 Change from baseline, Mean (SD) [18]: −14.40 (7.60)
HSS7 Change from baseline, Median [18]: −17.00
HSS7 Percent change from baseline, Mean (SD) [18]: −78.57 (29.45) %
HSS7 Percent change from baseline, Median [18]: −100.00%
